From article PMC7024204, “Synthesis, Crystal Structure, and Biological Activity of a Multidentate Calix[4]arene Ligand Doubly Functionalized by 2-Hydroxybenzeledene-Thiosemicarbazone” (Molecules, 2020)
In brackets after ≈: the same amount, converted by molar mass. Read-outs that look alike come from different tables or passages of the source.

Experiments:
[1] = test system: MG-63 cell line; experiment: MTT cytotoxicity assay; format: cell-based, human; conditions: for IC50: Homo sapiens, MG-63, MTT, 48 h, read-out: In vitro cytotoxic activity IC50; for anti-cancer effect: MG-63, especially at 2.5–20 μg/mL
Description: (§1) The colorimetric MTT assay, introduced by Mossmann, was used for the evaluation of the anti-cancer activity of our synthesized compounds against Saos-2 and MG-63 cell lines (human bone cancer cells). These cells were obtained from the Pasteur Institute of Iran, Tehran, Iran and maintained in RPMI 1640 medium supplemented with 10% FBS and 1% benzylpenicillin/streptomycin. […] The cells without treatment were considered as the control. After 48 h, the medium was removed and replaced with 200 μL of fresh medium containing 100 μg mL^−1 MTT powder and incubated for a further 4 h. The medium was then withdrawn and 100 μL of DMSO was added to dissolve the formazan crystals inside the cells. The absorbance of solubilized formazan was detected at 570 nm with the reference wavelength of 630 nm using an ELISA plate reader (Stat Fax, 2100, Awareness Technology Inc., Palm City, FL, USA). The viability of cells in each well was calculated by the following formula:(1) viability of cells (%)=mean absorbance of sample/mean absorbance of control×100.

[2] = test system: Saos-2 cell line; experiment: MTT cytotoxicity assay; format: cell-based, human; conditions: for IC50: Homo sapiens, Saos-2, MTT, 48 h, read-out: In vitro cytotoxic activity IC50; for anti-cancer effect: Saos-2, especially at 2.5–20 μg/mL
Description: as §1

[3] = test system: B. subtilis (ATCC 6633); experiment: Broth microdilution (serial double dilution) MIC/MBC; format: cell-based; conditions: Bacillus subtilis; for MIC: ATCC6633, 24 h, 37 °C, micro-broth dilution
Description: (§2) S. aureus (ATCC® 29213™), B. subtilis (ATCC® 6633™), E. coli (ATCC® 25922™), P. aeruginosa (ATCC® 27853™), C. albicans (ATCC® 10231™), and C. glabrata (ATCC® 2001™) were cultured onto sterile Mueller-Hinton agar plates, and incubated at 37 °C for 24 h. After incubation, a single colony was selected to inoculate a sterile tube containing 2 mL of sterile normal saline to match the turbidity of a 0.5 McFarland standard (10^8 cfu/mL). Further dilution was done with sterile normal saline to 10^5 cfu/mL before incubation.
(§3) Serial dilution of the synthesized compounds suspension in DMSO (2000–15.62 μg/mL) was done in a sterile 96-well plate. Then, 20 μL of an overnight bacterial and fungal suspension and 180 μL of the compounds suspension in MHB (and 1% glucose for fungal strains) were mixed in each well. The final concentration of DMSO was 10%. After 24 h of incubation at 37 °C, the first concentration with no bacterial growth is regarded as the minimum inhibitory concentration (MIC). Controls (microorganism strain in MHB without chemical and MHB alone) were included in each measurement. Aliquots of 5 μL from wells in which no growth was observed were spotted onto Mueller–Hinton agar plates to determine the minimum bactericidal concentration (MBC) values. The MBC was read as the lowest concentration with no growth after 24 h of incubation.

[4] = test system: S. aureus (ATCC 29213); experiment: as above; format: cell-based; conditions: Staphylococcus aureus
Description: as §2, §3

[5] = test system: E. coli (ATCC 25922); experiment: as above; format: cell-based, Escherichia coli; conditions: for MIC / MBC: Escherichia coli; for MIC: ATCC25922, 24 h, 37 °C, micro-broth dilution; for MBC: ATCC25922, micro-broth dilution
Description: as §2, §3

[6] = test system: P. aeruginosa (ATCC 27853); experiment: as above; format: cell-based, Pseudomonas aeruginosa; conditions: for MIC: ATCC27853, 24 h, 37 °C, micro-broth dilution
Description: as §2, §3

[7] = test system: C. albicans (ATCC 10231); experiment: as above; format: cell-based, Candida albicans; conditions: for MIC: 37 °C, micro-broth dilution
Description: as §2, §3

[8] = test system: Saos-2 cells; experiment: DAPI staining, morphology of cell nuclei; format: cell-based, human; conditions: Saos-2, 48 h exposure at IC50
Description: To visually study the apoptotic effects of the synthesized compounds (L and its Co, Ni, Cu, and Zn complexes), the 4′,6-diamidino-2-phenylindole (DAPI) staining assay was performed according to the literature procedure. Briefly, Saos-2 cells were seeded in six-well plates (5 × 10^4 cells per well) and incubated at 37 °C for 24 h. After the growth of the cells, the culture media were replaced by fresh media containing L and its metal derivatives (sterile filtered through 500 nm) at their half-maximal inhibitory growth concentration (IC50). Cells receiving no treatment were considered as the control group. After 48 h, the cells were washed three times with fresh PBS (pH 7.4) to remove any chemical compounds. Subsequently, the cells were fixed with 4 wt% paraformaldehyde for 15 min at room temperature. Afterwards, the cells were washed three times with PBS and permeabilized with Triton X-100 (0.1% w/v) for 5 min. The cells were washed again with PBS and stained with 300 ng mL^−1 DAPI for 15 min. DNA condensation and fragmentation in apoptotic cells were evaluated under a fluorescence microscope.

[9] = test system: C. glabrata (ATCC 2001); experiment: Broth microdilution (serial double dilution) MIC/MBC; format: cell-based, Candida glabrata; conditions: 24 h, 37 °C, micro-broth dilution
Description: as §2, §3

[10] = test system: C. albicans (ATCC 10231); set-up: method as in PMID 31649917; conditions: cited from earlier work
[11] = test system: Saos-2 cell line; set-up: method as in PMID 31649917; conditions: Saos-2, thiosemicarbazide ligand and metal derivatives; cited from earlier work

MIC [3] [µg/mL]	MIC [5] [µg/mL]	MIC ([6]; Pseudomonas aeruginosa) [µg/mL]	Molecule	IC50 [1] [µg/mL]	anti-cancer effect [1]	IC50 [2] [µg/mL]	anti-cancer effect [2]	MBC [5] [µg/mL]	also measured
–	–	–	COc1cccc2c1C(=O)c1c(O)c3c(c(O)c1C2=O)C[C@@](O)(C(=O)CO)C[C@@H]3O[C@H]1C[C@H](N)[C@H](O)[C@H](C)O1 [DOX, doxorubicin]	10.1 (≈ 18.6 µM)	strong anti-cancer effects	2.1 (≈ 3.86 µM)	strong anti-cancer effects	–	–
2 (≈ 4.19 µM)	0.5 (≈ 1.05 µM)	2 (≈ 4.19 µM)	CNC(C)C1CCC(N)C(OC2C(N)CC(N)C(OC3OCC(C)(O)C(NC)C3O)C2O)O1 (stereo not shown) [Gentamicin]	–	–	–	–	0.5 (≈ 1.05 µM)	MBC ([3]; ATCC6633, micro-broth dilution): 2 µg/mL (≈ 4.19 µM); MIC ([4]; ATCC29213, 24 h, 37 °C, micro-broth dilution): 0.12 µg/mL (≈ 0.251 µM); MBC ([4]; ATCC29213, micro-broth dilution): 0.25 µg/mL (≈ 0.523 µM); MBC ([6]; Pseudomonas aeruginosa, ATCC27853, micro-broth dilution): 2 µg/mL (≈ 4.19 µM)
31.2 (≈ 28.6 µM)	31.2 (≈ 28.6 µM)	31.2 (≈ 28.6 µM)	CC(C)(C)c1cc2c(O)c(c1)Cc1cc(C(C)(C)C)cc(c1OCCNC(=S)NN=Cc1ccccc1O)Cc1cc(C(C)(C)C)cc(c1O)Cc1cc(C(C)(C)C)cc(c1OCCNC(=S)NN=Cc1ccccc1O)C2 [Ligand L, 5, 11, 17, 23-tetra-tert-butyl-26, 28-dihydroxy-25, 27-bis(2(2-hydroxybenzeledene)thiosemicarbazonoethoxy) calix[4]arene]	> 200	–	< 25	–	31.2 (≈ 28.6 µM)	improvement of MIC in comparison with thiosemicarbazide equivalent [5]: 8 fold; improvement of MIC in comparison with thiosemicarbazide equivalent [6]: 2 fold; antifungal activity [7]: strong; MIC ([7]; Candida albicans, ATCC10231, 24 h, read-out: MIC): 31.2 µg/mL (≈ 28.6 µM); MBC ([7]; Candida albicans, ATCC10231, micro-broth dilution): 125 µg/mL (≈ 115 µM); antifungal activity ([7]; listed as thiosemicarbazone schiff-base ligand): significant antifungal activity; morphology of cell nuclei (DAPI-stained cells) [8]: deformed and fragmented nuclei; melting point: 230 °C (dec.)
–	–	–	CN(Cc1cnc2nc(N)nc(N)c2n1)c1ccc(C(=O)N[C@@H](CCC(=O)O)C(=O)O)cc1 [MTX, Methotrexate]	14.5 (≈ 31.9 µM)	strong anti-cancer effects	7.9 (≈ 17.4 µM)	strong anti-cancer effects	–	–
–	–	–	C[C@@H]1[C@H](O)[C@@H](C)/C=C/C=C/CC/C=C/C=C/C=C/C=C/C(O[C@H]2O[C@H](C)[C@@H](O)[C@H](N)[C@@H]2O)CC2O[C@](O)(CC(O)C(O)CCC(O)CC(O)CC(O)CC(=O)O[C@H]1C)CC(O)C2C(=O)O (stereo partly shown) [Nystatin]	–	–	–	–	–	MIC ([7]; 24 h): 1.25 µg/mL (≈ 1.35 µM); MIC [9]: 0.625 µg/mL (≈ 0.675 µM)
–	–	–	Bisthiosemicarbazide-substituted p-tert-butylcalix[4]arene [thiosemicarbazide ligand]	–	–	–	–	–	antifungal activity [10]: resistant; IC50 [11]: > 200 µg/mL
